# Laboratory results taken from ChEMBL document CHEMBL5233290, “Anulamycins A-F, Cinnamoyl-Containing Peptides from a Lake Sediment Derived Streptomyces” (J Nat Prod, 2023).
# What was measured:
# K562 = test: Cytotoxicity against human K562 cells assessed as reduction in cell viability incubated for 72 hrs by CCK8 assay; format: functional, cell-based; details: K562, 72 h
# Staphylococcus aureus = test: Antibacterial activity against Staphylococcus aureus ATCC 43300 assessed as inhibition of bacterial growth incubated for 18 hrs by 2-fold serial dilution method; format: functional
# A549 = test: Cytotoxicity against human A549 cells assessed as reduction in cell viability incubated for 72 hrs by CCK8 assay; format: functional, cell-based; details: A549, 72 h
# Escherichia coli = test: Antibacterial activity against Escherichia coli ATCC35218 assessed as inhibition of bacterial growth incubated for 18 hrs by 2-fold serial dilution method; format: functional
# [1] = tested on: Staphylococcus epidermidis; test: Antibacterial activity against Staphylococcus epidermidis ATCC12228 assessed as inhibition of bacterial growth incubated for 18 hrs by 2-fold serial dilution method; details: ATCC12228, 18 h
# Bacillus subtilis = test: Antibacterial activity against Bacillus subtilis E168 assessed as inhibition of bacterial growth incubated for 18 hrs by 2-fold serial dilution method; format: functional
MIC (Staphylococcus aureus) [µM],MIC (Escherichia coli) [µM],MIC [1] [µM],MIC (Bacillus subtilis) [µM],SMILES,IC50 (K562) [µM],IC50 (A549) [µM]
32,> 128,64,48,C/C=C\c1ccccc1/C=C/C(=O)N[C@@H]1C(=O)N[C@@H](C)C(=O)N[C@@H](CC(=O)O)C(=O)NCC(=O)N[C@@H]([C@@H](O)c2ccccc2)C(=O)N2CCC[C@H]2C(=O)N[C@@H]([C@@H](O)c2ccc(OC)cc2)C(=O)N[C@H](Cc2c[nH]c3ccccc23)C(=O)N[C@@H](O)C(=O)N[C@H](CC(C)C)C(=O)N[C@H]([C@@H](O)C(C)C)C(=O)O[C@@H]1C,> 10,> 10
32,> 128,64,32,C/C=C\c1ccccc1/C=C/C(=O)N[C@H](C(=O)N[C@@H](C)C(=O)N[C@H](C(N)=O)[C@H](C)C(=O)N1CC(=O)N[C@@H]([C@@H](O)c2ccccc2)C(=O)N2CCC[C@H]2C(=O)N[C@@H]([C@@H](O)c2ccc(OC)cc2)C(=O)N[C@H](Cc2c[nH]c3ccccc23)C1=O)[C@@H](C)O,> 10,> 10
16,> 128,16,16,C/C=C\c1ccccc1/C=C/C(=O)N/C(=C\C)C(=O)N[C@@H](C)C(=O)N[C@H](C(N)=O)[C@H](C)C(=O)N1CC(=O)N[C@@H]([C@@H](O)c2ccccc2)C(=O)N2CCC[C@H]2C(=O)N[C@@H]([C@@H](O)c2ccc(OC)cc2)C(=O)N[C@H](Cc2c[nH]c3ccccc23)C1=O,> 10,> 10
64,> 128,128,64,C/C=C\c1ccccc1/C=C/C(=O)N[C@H](C(=O)N[C@@H](C)C(=O)N[C@@H](CC(=O)N1CC(=O)N[C@@H]([C@@H](O)c2ccccc2)C(=O)N2CCC[C@H]2C(=O)N[C@@H]([C@@H](O)c2ccc(OC)cc2)C(=O)N[C@H](Cc2c[nH]c3ccccc23)C1=O)C(N)=O)[C@@H](C)O,> 10,> 10
32,> 128,64,64,C/C=C\c1ccccc1/C=C\C(=O)N[C@H](C(=O)N[C@@H](C)C(=O)N[C@H](C(N)=O)[C@H](C)C(=O)N1CC(=O)N[C@@H]([C@@H](O)c2ccccc2)C(=O)N2CCC[C@H]2C(=O)N[C@@H]([C@@H](O)c2ccc(OC)cc2)C(=O)N[C@H](Cc2c[nH]c3ccccc23)C1=O)[C@@H](C)O,> 10,> 10

# Continued, compound first:
SMILES,MIC (Staphylococcus aureus) [µM],MIC (Escherichia coli) [µM],MIC [1] [µM],MIC (Bacillus subtilis) [µM],IC50 (K562) [µM],IC50 (A549) [µM]
C/C=C\c1ccccc1/C=C/C(=O)N[C@@H]1C(=O)N[C@@H](C)C(=O)N[C@@H]([C@H](C)C(=O)O)C(=O)NCC(=O)N[C@@H]([C@@H](O)c2ccccc2)C(=O)N2CCC[C@H]2C(=O)N[C@@H]([C@@H](O)c2ccc(OC)cc2)C(=O)N[C@H](Cc2c[nH]c3ccccc23)C(=O)N[C@@H](O)C(=O)N[C@H](CC(C)C)C(=O)N[C@H]([C@@H](O)C(C)C)C(=O)O[C@@H]1C,16,> 128,32,16,> 10,> 10
C/C=C\c1ccccc1/C=C\C(=O)N[C@H](C(=O)N[C@@H](C)C(=O)N[C@@H](CC(=O)O)C(=O)NCC(=O)N[C@H](C(=O)N1CCC[C@H]1C(=O)N[C@H](C(=O)N[C@H](Cc1c[nH]c2ccccc12)C(N)=O)[C@@H](O)c1ccc(OC)cc1)[C@@H](O)c1ccccc1)[C@@H](C)O,64,> 128,> 128,> 128,> 10,> 10
C/C=C\c1ccccc1/C=C/C(=O)N[C@H](C(=O)N[C@@H](C)C(=O)N[C@@H](CC(=O)O)C(=O)NCC(=O)N[C@H](C(=O)N1CCC[C@H]1C(=O)N[C@H](C(=O)N[C@H](Cc1c[nH]c2ccccc12)C(N)=O)[C@@H](O)c1ccc(OC)cc1)[C@@H](O)c1ccccc1)[C@@H](C)O,64,> 128,> 128,> 128,> 10,> 10
NC[C@H]1O[C@H](O[C@H]2[C@H](O)[C@@H](O[C@H]3O[C@H](CO)[C@@H](O)[C@H](N)[C@H]3O)[C@H](N)C[C@@H]2N)[C@H](O)[C@@H](O)[C@@H]1O [KANAMYCIN],< 2,< 2,< 2,< 2,,
